Experiment: Measurement of pKa of ethanolamine (potentiometric titration)
Settings: aqueous solution of the ethanolamine

pKa: 7.48
SMILES: COCCOCCN(CCOCCOC)CCOCCOC [Tris[2-(2-methoxyethoxy)ethyl]amine, tris[2-(2-methoxyethoxy)ethyl]amine]

— patent US11345825B2, “Aqueous pigment dispersion” (KAO CORPORATION, priority 2016, dated 2022)
